Measurements reported in patent publication US20120058989A1, “ANTIBACTERIAL FLUOROQUINOLONE ANALOGS” (Achaogen, Inc., priority 2008, published 2012).
≈ marks a conversion by molar mass, not a printed value. Read-outs that look alike come from different tables or passages of the source.

Columns and labels:
Test in all cases: MIC, CLSI broth microdilution
Format in all cases: cell-based
[1] = test system: S. pneumoniae ASPN002 (Fluoroquinolone-susceptible, ATCC10813); settings: Streptococcus pneumoniae, Table 3
How it was run: (§1)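 MICs were read after 20 hours at 35° C in ambient air, with a final inoculum of 5×10^5 CFU/mL from saline-suspended overnight colonies. Serial two-fold dilutions in Mueller Hinton Broth followed the CLSI reference method (M7-A7), with QC strains E. coli ATCC 25922, P. aeruginosa ATCC 27853 and S. aureus ATCC 29213.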

[2] = test system: S. pneumoniae ASPN1027 (Fluoroquinolone-resistant); settings: Streptococcus pneumoniae
How it was run: as §1

[3] = test system: E. coli AECO066 (Fluoroquinolone-resistant); settings: Escherichia coli
How it was run: as §1

[4] = test system: E. coli AECO001 (Fluoroquinolone susceptible, ATCC25922); settings: Escherichia coli
How it was run: as §1

[5] = test system: A. baumannii AABA1065 (Fluoroquinolone-susceptible); settings: Acinetobacter baumannii
How it was run: as §1

[6] = test system: A. baumannii AABA1020 (Fluoroquinolone-resistant); settings: Acinetobacter baumannii, Table 3
How it was run: as §1

[7] = test system: P. aeruginosa APAE054 (Fluoroquinolone-resistant); settings: Pseudomonas aeruginosa
How it was run: as §1

[8] = test system: P. aeruginosa APAE002 (Fluoroquinolone susceptible); settings: Pseudomonas aeruginosa, Table 3
How it was run: as §1

[9] = test system: S. pneumoniae ASPN1018 (Fluoroquinolone-resistant); settings: Streptococcus pneumoniae, Table 3
How it was run: as §1

[10] = test system: E. coli AECO086 (Fluoroquinolone-resistant); settings: Escherichia coli, Table 3
How it was run: as §1

[11] = test system: S. aureus ASAU002 (Fluoroquinolone-susceptible, ATCC33591 (MRSA)); settings: Staphylococcus aureus, Table 3
How it was run: as §1

[12] = test system: S. pneumoniae ASPN001 (Fluoroquinolone-susceptible, ATCC49619); settings: Streptococcus pneumoniae
How it was run: as §1

[13] = test system: P. aeruginosa APAE001 (Fluoroquinolone-susceptible, ATCC27853); settings: Pseudomonas aeruginosa
How it was run: as §1

[14] = test system: E. coli AECO002 (Fluoroquinolone susceptible); settings: Escherichia coli, Table 3
How it was run: as §1

[15] = test system: A. baumannii AABA1009 (Fluoroquinolone-resistant); settings: Acinetobacter baumannii, Table 2, read-out: MIC AABA 1009
How it was run: as §1

[16] = test system: S. aureus ASAU001 (Fluoroquinolone-susceptible, ATCC29213); settings: Staphylococcus aureus
How it was run: as §1

[17] = test system: S. aureus ASAU1033 (Fluoroquinolone-resistant); settings: Staphylococcus aureus, Table 3
How it was run: as §1

[18] = test system: S. aureus ASAU1031 (Fluoroquinolone-resistant); settings: Staphylococcus aureus
How it was run: as §1

[19] = Table 2, read-out: MIC ASPN 1027
[20] = Table 2, read-out: MIC AECO 066
[21] = Table 2, 35° C., 20 hours, read-out: MIC AECO 001
[22] = Table 2, read-out: MIC AABA 1065
[23] = Table 2, read-out: MIC APAE 054
[24] = Table 2, read-out: MIC ASPN 001
[25] = Table 2, read-out: MIC APAE 001
[26] = Table 2, read-out: MIC ASAU 001
[27] = Table 2, read-out: MIC ASAU 1031

Row | Structure (SMILES) | MIC [1] [µg/mL] | MIC [2, 19] [µg/mL] | MIC ([2]; Table 3) [µg/mL] | MIC [3, 20] [µg/mL] | MIC ([3]; Table 3) [µg/mL] | MIC [4, 21] [µg/mL] | MIC ([4]; Table 3) [µg/mL] | MIC [5, 22] [µg/mL] | MIC ([5]; Table 3) [µg/mL] | MIC [6] [µg/mL] | MIC [7, 23] [µg/mL] | MIC ([7]; Table 3) [µg/mL] | MIC [8] [µg/mL] | MIC [9] [µg/mL] | MIC [10] [µg/mL] | MIC [11] [µg/mL] | MIC [12, 24] [µg/mL] | MIC ([12]; Table 3) [µg/mL] | MIC [13, 25] [µg/mL] | MIC ([13]; Table 3) [µg/mL] | also measured
1 | C[C@H]1COc2c(N3CCN(C)CC3)c(F)cc3c(=O)c(C(=O)O)cn1c23 [Levofloxacin, reference compound] | 1 to 2 (≈ 2.77 to 5.53 µM) | > 8 | > 8 | > 8 | > 8 | ≤ 1 | < 1 | ≤ 1 | < 1 | > 8 | > 8 | > 8 | < 1 | > 8 | > 8 | < 1 | 1 to 8 (≈ 2.77 to 22.1 µM) | 1 to 2 (≈ 2.77 to 5.53 µM) | 1 to 8 (≈ 2.77 to 22.1 µM) | 1 to 2 (≈ 2.77 to 5.53 µM) | MIC [14]: < 1 µg/mL; MIC [15]: > 8 µg/mL; MIC [16, 26]: ≤ 1 µg/mL; MIC ([16]; Table 3): < 1 µg/mL; MIC [17]: > 8 µg/mL; MIC [18, 27]: > 8 µg/mL; MIC ([18]; Table 3): > 8 µg/mL
2 | COc1c(N2C[C@@H]3CCCN[C@@H]3C2)c(F)cc2c(=O)c(C(=O)O)cn(C3CC3)c12 [Moxifloxacin, reference compound] | < 1 | 1 to 8 (≈ 2.49 to 19.9 µM) | 2 to 8 (≈ 4.98 to 19.9 µM) | > 8 | > 8 | ≤ 1 | < 1 | ≤ 1 | < 1 | > 8 | > 8 | > 8 | 1 to 2 (≈ 2.49 to 4.98 µM) | 2 to 8 (≈ 4.98 to 19.9 µM) | > 8 | < 1 | ≤ 1 | < 1 | 1 to 8 (≈ 2.49 to 19.9 µM) | 1 to 2 (≈ 2.49 to 4.98 µM) | MIC [14]: < 1 µg/mL; MIC [15]: > 8 µg/mL; MIC [16, 26]: ≤ 1 µg/mL; MIC ([16]; Table 3): < 1 µg/mL; MIC [17]: > 8 µg/mL; MIC [18, 27]: 1 to 8 µg/mL (≈ 2.49 to 19.9 µM); MIC ([18]; Table 3): 2 to 8 µg/mL (≈ 4.98 to 19.9 µM)
